The subject of the assay is subgenomic HCV replicon in Huh-7 cells. Briefly: microbe, parasite or virus in culture. The class given is cell-based. The settings on record: Hepatitis C virus, Huh-7, 72 h, read-out: EC50 (50% inhibitory concentration) in HCV replicon cells. (In general: In antiviral work, replicon cells carry a viral genome segment that copies itself.)

This passage reports EC50 results from patent US9758544B2 (priority 2014, dated 2017).

As for `[2H]C([2H])(OP(=O)(N[C@H](C)C(=O)OC(C)C)Oc1ccccc1)[C@@]1(F)O[C@@H](n2cnc3c(OCC)nc(N)nc32)[C@](C)(F)[C@@H]1O` (stereo partly shown) [Compound 2], the EC50 was under 1000 nM.
